Results taken from publication PMC10845205, “Discovery of novel antibacterial agent for the infected wound treatment: all-hydrocarbon stapling optimization of LL-37” (Theranostics, 2024).
Converted amounts (≈) assume the structure as drawn. Positions of bridges follow the written chain, without caps; N, C: chain ends. Non-standard residues stand in square brackets, D forms with d. Residues, ends and D or L forms follow the SMILES beside them. S5 = C=CCCC[C@](C)(N)C(=O)O

Key:
E. coli = conditions: 24 h
Procedure: (§1) According to the protocol of Clinical & Laboratory Standards Institute, the minimum inhibitory concentration (MIC) of the linear and stapled peptides against a panel of gram-positive and gram-negative bacteria was determined by the broth microdilution method. […]
(§2) Bacterial strains and culture
(§3) Bacterial type stains ATCC 25923 S. aureus, ATCC 12228 S. epidermidis, ATCC […]
(§4) aeruginosa and ATCC 13883 K. pneumoniae were obtained from Shanghai Bioresource Collection Center. The bacterial culture medium was purchased from Oxoid and autoclaved according to the instructions from manufacturer. The isolated strains were cultured in Mueller Hinton II broth and continuously shaken at 140 rpm for 18 hours to the middle of the exponential growth phase at 37 °C with an OD value of 0.4-0.5.
(§5) Bacterial suspensions with an OD value of 0.1, approximately […], were then diluted for further assays.
(§6) The minimal inhibition concentration (MIC) of the linear and stapled peptides was determined using the microbroth dilution method from the Clinical and Laboratory Standards Institute (CLSI)[2, 3]. Bacterial suspensions of 10 6 CFU/mL were prepared in MH-II broth and peptide solutions at varying concentrations were prepared in phosphate buffer saline (PBS). Then 50 μL peptide solution and 50 μL bacterial suspension were mixed in a 96 -well plate. Plates were incubated for 24 hours at 37 °C.
(§7) 10 μL AlamarBlue cell viability reagent (ThermoFisher Scientific, UK) was added to each well, then the plate was re -incubated for a further 2 hours at 37 °C. The MIC was recorded as the minimum concentration of peptides required to completely in hibit bacteria growth. For serum stability assessment, the peptide solutions were pre - incubated with 50% human serum for 4 h before the MIC determination. Experiments were performed in 3 independent measurements. […]

P. aeruginosa = conditions: 24 h
Procedure: as §1, §2, §3, §4, §5, §6, §7

K. pneumoniae = conditions: 24 h
Procedure: as §1, §2, §3, §4, §5, §6, §7

A. baumannii = conditions: 24 h
Procedure: as §1, §2, §3, §4, §5, §6, §7

S. aureus = conditions: 24 h
Procedure: as §1, §2, §3, §4, §5, §6, §7

E. faecalis = conditions: 24 h
Procedure: as §1, §2, §3, §4, §5, §6, §7

S. epidermidis = conditions: 24 h
Procedure: as §1, §2, §3, §4, §5, §6, §7

Serum stability assay = assay type: in vitro ADME, human; conditions: human serum, 2 mg/mL peptide in pH 7.4 PBS mixed with serum 1:4, 37 °C, up to 48 h, RP-HPLC UV 220 nm, 3 independent measurements
Source text: Maintaining high stability and presenting high compatibility in the complex physiological environment are important criterions for the clinical translation of AMPs. […] The derivatives were mixed with human serum in pH 7.4 PBS, simulating the degradation process of peptides by proteases in vivo. The percentages of intact derivatives were monitored and determined with time according to the PR-HPLC. […]
Serum stability of the linear and stapled peptides was examined by RP -HPLC as previously described. 2 mg/mL peptide solution was prepared in pH 7.4 PBS and incubated with human serum (Gemini, USA) to the final volume ratio of 1:4 at 37 °C.
At various time intervals, 50 μL mixture was added to 50 μL ethanol to terminate the enzymatic hydrolysis. After centrifugation at 10,000 rpm for 10 minutes under 4 °C, […]
the supernatant was collected and analyzed by RP-HPLC, with a UV detector monitored at 220 nm. Record the peak area of the intact peptide and calculate the percentage of remaining peptide based on the integrated area as, Peptide remaining (%) = peak area of remaining peptide/peak area of intact peptide×100%. […]

NIH-3T3 cell = conditions: 24 h
Procedure: For development of the stapled KR-12 derivatives to treat bacterial infections in vivo, their cytotoxicity was examined via the CCK-8 assay, which could provide a quantitative assessment of cell viability based on the dehydrogenase activity. The mouse embryonic fibroblast NIH-3T3 cell was selected and incubated with various concentrations of KR-12 and its stapled derivatives.
Mouse embryonic fibroblast cells NIH-3T3 and mouse monocyte macrophage leukemia cells RAW264.7 were obtained from Shanghai Institute of Biochemistry and Cell Biology, Chinese Academy of Sciences. These two cells were maintained in DMEM and RPMI-1640, respectively. Both media were supplemented with 10% FBS and 1% 100 U/mL penicillin-streptomycin solution. Cells were maintained at 37 °C in a 5% CO2 and humidified incubator. Replace the culture medium every day until the cell grows to confluence. Cells were then treated with 0.25% trypsin–EDTA and split using fresh medium for either passage or analysis.
CCK-8 cell counting kit was utilized to examine the cytotoxicity of the linear and stapled peptides. NIH-3T3 cell was planked at a density of 1.5×10^4 cell/well in a 96 - well plate and incubated it for 24 hours at 37 °C. Cells were then treated with different concentrations of peptides in fresh DMEM and incubated for 24 hours before the addition of 10 μL CCK -8 and incubation for a further 1 hour. Measure the absorbance at 450nm using a microplate reader (BioTek, USA) and calculate the percentage of cell viability as: cell viability (%) = (Abspeptide-Absblank)/(Abscontrol-Absblank)×100%, where Abscontrol is the absorbance of cells treated with PBS and Abs blank is the absorbance of the cell-free medium. The data was fitted using the nonlinear regression within

Question: Which “MIC E. coli” value (E. coli) does the source give for `CC(=O)N[C@@H](CCCCN)C(=O)N[C@@H](CCCNC(=N)N)C(=O)N[C@@]1(C)CCCC=CCCC[C@@](C)(C(=O)N[C@@H](CCCCN)C(=O)N[C@@H](CC(=O)O)C(=O)N[C@@H](Cc2ccccc2)C(=O)N[C@@H](CC(C)C)C(=O)N[C@@H](CCCNC(=N)N)C(N)=O)NC(=O)[C@H](CCCNC(=N)N)NC(=O)[C@H](CCC(N)=O)NC(=O)[C@H](C(C)C)NC1=O` [KR-12 (I3, I7)] (Ac-KR[S5]VQR[S5]KDFLR-NH2; staple 3-7) here?
Answer: 16 µg/mL (≈ 9.77 µM)

Question: And the “MIC P. aeruginosa” value (P. aeruginosa)?
Answer: 256 µg/mL (≈ 156 µM)

Question: What about the “MIC K. pneumoniae” value (K. pneumoniae) of the same molecule?
Answer: 128 µg/mL (≈ 78.2 µM)

Question: And the “MIC A. baumannii” value (A. baumannii)?
Answer: 32 µg/mL (≈ 19.5 µM)

Question: What about the “MIC S. aureus” value (S. aureus) of the same molecule?
Answer: 8 µg/mL (≈ 4.89 µM)

Question: What about the “MIC E. faecalis” value (E. faecalis) of the same molecule?
Answer: 16 µg/mL (≈ 9.77 µM)

Question: What about the “MIC S. epidermidis” value (S. epidermidis) of the same molecule?
Answer: 64 µg/mL (≈ 39.1 µM)

Question: What about the “TD50 (time at which 50% of the peptide is degraded in the presence of serum)” value (Serum stability assay) of the same molecule?
Answer: 4.21 h

Question: And the “IC50 against NIH-3T3 cell” value (NIH-3T3 cell)?
Answer: 145.7 µg/mL (≈ 89 µM)

Question: With `CC[C@H](C)[C@H](NC(=O)[C@H](CCCNC(=N)N)NC(=O)[C@H](CCCCN)NC(C)=O)C(=O)N[C@H](C(=O)N[C@@H](CCC(N)=O)C(=O)N[C@@H](CCCNC(=N)N)C(=O)N[C@@]1(C)CCCC=CCCC[C@@](C)(C(=O)N[C@@H](CCCNC(=N)N)C(N)=O)NC(=O)[C@H](Cc2ccccc2)NC(=O)[C@H](CC(=O)O)NC(=O)[C@H](CCCCN)NC1=O)C(C)C` [KR-12 (I7, L11)] (Ac-KRIVQR[S5]KDF[S5]R-NH2; staple 7-11) as the molecule, how does the “MIC E. coli” value (E. coli) read?
Answer: 32 µg/mL (≈ 19.5 µM)

Question: And the “MIC P. aeruginosa” value (P. aeruginosa)?
Answer: 256 µg/mL (≈ 156 µM)

Question: And the “MIC K. pneumoniae” value (K. pneumoniae)?
Answer: 256 µg/mL (≈ 156 µM)

Question: What about the “MIC A. baumannii” value (A. baumannii) of the same molecule?
Answer: 64 µg/mL (≈ 39.1 µM)

Question: What about the “MIC S. aureus” value (S. aureus) of the same molecule?
Answer: 32 µg/mL (≈ 19.5 µM)

Question: What about the “MIC E. faecalis” value (E. faecalis) of the same molecule?
Answer: 32 µg/mL (≈ 19.5 µM)

Question: What about the “MIC S. epidermidis” value (S. epidermidis) of the same molecule?
Answer: 128 µg/mL (≈ 78.2 µM)

Question: And the “TD50 (time at which 50% of the peptide is degraded in the presence of serum)” value (Serum stability assay)?
Answer: 11.44 h

Question: What about the “IC50 against NIH-3T3 cell” value (NIH-3T3 cell) of the same molecule?
Answer: 212.8 µg/mL (≈ 130 µM)

Question: What does the source list for `CC[C@H](C)[C@@H]1NC(=O)[C@H](CCCNC(=N)N)NC(=O)[C@@](C)(NC(=O)[C@@H](NC(=O)[C@@H](NC(=O)[C@H](CCCNC(=N)N)NC(=O)[C@H](CCCCN)NC(C)=O)[C@@H](C)CC)C(C)C)CCCC=CCCC[C@@](C)(C(=O)N[C@@H](Cc2ccccc2)C(=O)N[C@@H](CC(C)C)C(=O)N[C@@H](CCCNC(=N)N)C(N)=O)NC(=O)[C@H](CCCCN)NC1=O` [KR-12 (Q5, D9)] (Ac-KRIV[S5]RIK[S5]FLR-NH2; staple 5-9)?
Answer: MIC E. coli (E. coli): 8 µg/mL (≈ 4.94 µM); MIC P. aeruginosa (P. aeruginosa): 64 µg/mL (≈ 39.5 µM); MIC K. pneumoniae (K. pneumoniae): 128 µg/mL (≈ 79 µM); MIC A. baumannii (A. baumannii): 16 µg/mL (≈ 9.88 µM); MIC S. aureus (S. aureus): 8 µg/mL (≈ 4.94 µM); MIC E. faecalis (E. faecalis): 8 µg/mL (≈ 4.94 µM); MIC S. epidermidis (S. epidermidis): 16 µg/mL (≈ 9.88 µM); TD50 (time at which 50% of the peptide is degraded in the presence of serum) (Serum stability assay): 8.91 h; IC50 against NIH-3T3 cell (NIH-3T3 cell): 168.5 µg/mL (≈ 104 µM)

Question: Which “MIC E. coli” value (E. coli) does the source give for `CC[C@H](C)[C@H](NC(=O)[C@]1(C)CCCC=CCCC[C@](C)(NC(=O)[C@H](CCCCN)NC(C)=O)C(=O)N[C@@H]([C@@H](C)CC)C(=O)N[C@@H](C(C)C)C(=O)N[C@@H](CCC(N)=O)C(=O)N1)C(=O)N[C@@H](CCCCN)C(=O)N[C@@H](CC(=O)O)C(=O)N[C@@H](Cc1ccccc1)C(=O)N[C@@H](CC(C)C)C(=O)N[C@@H](CCCNC(=N)N)C(N)=O` [KR-12 (R2, R6)] (Ac-K[S5]IVQ[S5]IKDFLR-NH2; staple 2-6) here?
Answer: >256 µg/mL

Question: What about the “MIC P. aeruginosa” value (P. aeruginosa) of the same molecule?
Answer: > 256 µg/mL

Question: What about the “MIC K. pneumoniae” value (K. pneumoniae) of the same molecule?
Answer: > 256 µg/mL

Question: What about the “MIC A. baumannii” value (A. baumannii) of the same molecule?
Answer: > 256 µg/mL

Question: And the “MIC S. aureus” value (S. aureus)?
Answer: 128 µg/mL (≈ 82.5 µM)

Question: And the “MIC E. faecalis” value (E. faecalis)?
Answer: 128 µg/mL (≈ 82.5 µM)

Question: What about the “MIC S. epidermidis” value (S. epidermidis) of the same molecule?
Answer: 128 µg/mL (≈ 82.5 µM)

Question: And the “TD50 (time at which 50% of the peptide is degraded in the presence of serum)” value (Serum stability assay)?
Answer: 2.38 h

Question: What about the “IC50 against NIH-3T3 cell” value (NIH-3T3 cell) of the same molecule?
Answer: 78.3 µg/mL (≈ 50.5 µM)
